Laboratory results taken from patent publication US10351519B2, “Sulfamate derivative compounds, processes for preparing them and their uses” (BIO-PHARM SOLUTIONS CO., LTD., priority 2016, dated 2019).

Columns and labels:
ICR mice = experiment: Anti-epilepsy activity, MES test, mouse; assay type: in vivo; settings: for ED50 / responders at 50 mg/kg / responders at 30 mg/kg: po; for responders at 50 mg/kg / responders at 30 mg/kg: read-out: MES test (po) efficacy %
Method: In the MES test (Ref., G. Villetti et al. Neuropharmacology 40 (2001) 866-878), an electrical stimulus (mice: 50 mA, 60 Hz, 0.2 sec, and rats: 150 mA, 60 Hz, 0.2 sec in the test animal) supplied by an 11A Shocker (IITC Life Science Company) was delivered through corneal electrodes. All mice or rats assigned to any electroshock at peak time were treated with each test compound sample which was dissolved in 30% PEG 400 or 20% tween 80 prepared by saline solvent applied orally before the test. […] Three doses of the test sample were administered orally to 9-18 animals (3-6 mice per dose) for evaluating the respective doses at which 50% of the animals were protected from seizure (ED50). The ED50 value (median effective dose) was calculated by Litchfield and Wicoxon log-probit method which is a dose-response relationship. Experimental animals, male ICR mice and male SD rats, were purchased from OrientBio, Samtako, or Nara Biotech, Korea, and housed in cages (4-5 mice or 3 rats per cage) for 4-5 days. The range of mice body weight was between 19 and 25 grams and range of rats body weight was between 100 and 130 grams.

Sprague-Dawley rats = experiment: Antiallodynic activity on Complete Freund's Adjuvant (CFA)-induced inflammatory pain model; assay type: in vivo; settings: intraperitoneally; for response vs control in vivo at 50 mg/kg: Rattus norvegicus, ip, read-out: CFA-induced pain model efficacy %
Method: Male, Sprague-Dawley rats (210-250 g, Nara Bio, Korea) were habituated for 1 week before CFA injection and allowed free access to food and water throughout the experimentation. Room temperature and humidity were maintained at 24±2 and 50±10%, respectively.
CFA-induced inflammatory pain was induced by the procedure of Nagakura et al. (2003) and Gregory P. et al. (2010) with minor modifications. CFA (sigma, USA) was injected in the right plantar with a 100 ul volume under gaseous anesthesia with isoflurane. Sham controls were injected with 100 ul of saline and preparation of the vehicles without compound in the vehicle control group. Tactile sensitivity (Mechanical allodynia) was evaluated using von Frey monofilaments before and after treatment, and the animals were included in the study only if the withdrawal threshold value was less than 4 g. One week after surgery, CFA-infused treatment animals (n=4-6), sham-operated animals (n=12), and vehicle control animals (n=17) were tested for tactile sensitivity with von Frey monofilaments 3 trials for each animal. All Animals were placed in a stainless steel mesh chamber and habituated for 30 min in the test box. The tactile sensitivity for ipsilateral hind paw was measured using the up-and-down method (Dixon, 1980) with seven von Frey monofilaments (0.4, 1, 2, 4, 6, 8, and 15 g) to 3 trials. Tactile sensitivity test was followed by Dixon's method (Dixon, 1980). The 50% paw withdrawal threshold for each paw was calculated using the following formula: [Xth] log=[vFr] log+ky where [vFr] is the force of the last von Frey used, k=0.2249 which is the average interval (in log units) between the von Frey monofilaments, and y is a value that depends upon the pattern of withdrawal responses (Dixon, 1980).
Antiallodynic effect of compound was evaluated at the dose of 10-60 mg/kg (n=4-6), intraperitoneally administrated in a volume of 5 ul/g bw in a vehicle of 30% (v/v) PEG or 20% (v/v) Tween 80. The test was performed peak time of efficacy (0.5 or 1 hr) after compound administration.
The relative values compared to the sham (% control) were calculated and shown in Table 4, which show an antiallodynic effect of Compound 1 on CFA-induced pain model in rats.

COCO[C@@H](c1cccc(Cl)c1Cl)[C@H](C)OS(N)(=O)=O [Example 53, (1S, 2S)-1-(2,3-dichlorophenyl)-1-(methoxymethoxy)propan-2-yl sulfamate]
MES test (po) Peak time (ICR mice): 2 h
ED50 (ICR mice): 67.8 mg/kg

COCO[C@H](c1ccccc1Cl)[C@@H](C)OS(=O)(=O)NC1CC1 [Example 79, (1R, 2R)-1-(2-chlorophenyl)-1-(methoxymethoxy)propan-2-yl cyclopropylsulfamate]
MES test (po) Peak time (ICR mice): 1 h
responders at 50 mg/kg (ICR mice): 25%

COCO[C@@H](c1sc(Cl)nc1Cl)[C@H](C)OS(N)(=O)=O [Example 103, (1R,2S)-1-(2,4-dichlorothiazol-5-yl)-1-(methoxymethoxy)propan-2-yl sulfamate]
MES test (po) Peak time (ICR mice): 2 h
ED50 (ICR mice): 52.7 mg/kg

COCO[C@@H](c1ccccc1F)[C@H](C)OS(N)(=O)=O [Example 72, (1S, 2S)-1-(2-fluorophenyl)-1-(methoxymethoxy)propan-2-yl sulfamate]
response vs control in vivo at 50 mg/kg (Sprague-Dawley rats): 25.9%
CFA-induced pain model Peak Time (Sprague-Dawley rats): 0.5 h

C[C@H](OS(N)(=O)=O)[C@@H](O)c1cccc(Cl)c1Cl [Example 9, (1S, 2S)-1-(2,3-dichlorophenyl)-1-hydroxypropan-2-yl sulfamate]
MES test (po) Peak time (ICR mice): 4 h
ED50 (ICR mice): 61.8 mg/kg

COCO[C@@H](c1ccccc1I)[C@H](C)OS(N)(=O)=O [Example 74, (1S, 2S)-1-(2-iodophenyl)-1-(methoxymethoxy)propan-2-yl sulfamate]
MES test (po) Peak time (ICR mice): 0.5 h
responders at 30 mg/kg (ICR mice): 33.3%
response vs control in vivo at 50 mg/kg (Sprague-Dawley rats): 19.9%
CFA-induced pain model Peak Time (Sprague-Dawley rats): 0.5 h

CO[C@@H](c1ccccc1I)[C@H](C)OS(N)(=O)=O [Example 92, (1S,2S)-1-(2-iodophenyl)-1-methoxypropan-2-yl sulfamate]
response vs control in vivo at 50 mg/kg (Sprague-Dawley rats): 31.8%
CFA-induced pain model Peak Time (Sprague-Dawley rats): 0.5 h

CC(C)[C@@H](OS(N)(=O)=O)[C@H](O)c1ccccc1Cl [Example 14, (1R, 2R)-1-(2-chlorophenyl)-1-hydroxy-3-methylbutan-2-yl sulfamate]
MES test (po) Peak time (ICR mice): 1 h
responders at 50 mg/kg (ICR mice): 25%
response vs control in vivo at 50 mg/kg (Sprague-Dawley rats): 18.4%
CFA-induced pain model Peak Time (Sprague-Dawley rats): 1 h

CC(C)NS(=O)(=O)O[C@H](C)[C@H](O)c1ccccc1Cl [Example 38, (1R, 2R)-1-(2-chlorophenyl)-1-hydroxypropan-2-yl isopropylsulfamate]
MES test (po) Peak time (ICR mice): 2 h
responders at 50 mg/kg (ICR mice): 50%

COCO[C@@H](c1ccccc1Cl)[C@H](C)OS(=O)(=O)NC1CC1 [Example 78, (1S, 2S)-1-(2-chlorophenyl)-1-(methoxymethoxy)propan-2-yl cyclopropylsulfamate]
MES test (po) Peak time (ICR mice): 4 h
responders at 50 mg/kg (ICR mice): 25%

C[C@H](OS(N)(=O)=O)[C@@H](O)c1sc(Cl)nc1Cl [Example 102, (1R,2S)-1-(2,4-dichlorothiazol-5-yl)-1-hydroxypropan-2-yl sulfamate]
MES test (po) Peak time (ICR mice): 2 h
ED50 (ICR mice): 42.7 mg/kg

CC(C)[C@H](OS(N)(=O)=O)[C@@H](O)c1ccccc1Cl [Example 13, (1S, 2S)-1-(2-chlorophenyl)-1-hydroxy-3-methylbutan-2-yl sulfamate]
MES test (po) Peak time (ICR mice): 1 h
responders at 50 mg/kg (ICR mice): 25%

COCO[C@@H](c1c(F)cccc1Cl)[C@H](C)OS(N)(=O)=O [Example 61, (1S, 2S)-1-(2-chloro-6-fluorophenyl)-1-(methoxymethoxy)propan-2-yl sulfamate]
MES test (po) Peak time (ICR mice): 2 h
responders at 30 mg/kg (ICR mice): 33.3%

COCO[C@H](c1c(Cl)cccc1Cl)[C@@H](C)OS(N)(=O)=O [Example 58, (1R, 2R)-1-(2,6-dichlorophenyl)-1-(methoxymethoxy)propan-2-yl sulfamate]
MES test (po) Peak time (ICR mice): 1 h
ED50 (ICR mice): 54.4 mg/kg
response vs control in vivo at 50 mg/kg (Sprague-Dawley rats): 17.7%
CFA-induced pain model Peak Time (Sprague-Dawley rats): 0.5 h
